Laboratory results reported in ChEMBL document CHEMBL1201862, “PubChem BioAssay data set” (2004).
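Briefly, cells in 96-well plates were exposed to five compound concentrations for 48 h, and endpoints were estimated by linear interpolation. GI50 = concentration required for 50% inhibition of growth.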 Activity calls are given as the source filed them. No stated cut-off is given here; in the data, active = GI50 up to about 1.1 µM and inactive = higher.

Assays:
Test in all cases: NCI tumour cell line growth inhibition, 48 h
COLO 205 = test system: COLO 205
786-0 = test system: 786-0
CCRF-CEM = test system: CCRF-CEM
MDA-MB-231 = test system: MDA-MB-231
SK-MEL-28 = test system: SK-MEL-28
SK-MEL-5 = test system: SK-MEL-5
SN12C = test system: SN12C
Hs-578T = test system: Hs-578T
A498 = test system: A498
MOLT-4 = test system: MOLT-4
LOX IMVI = test system: LOX IMVI
MCF7 = test system: MCF7
CAKI-1 = test system: CAKI-1
BT-549 = test system: BT-549
OVCAR-4 = test system: OVCAR-4
Malme-3M = test system: Malme-3M
NCI-H522 = test system: NCI-H522
NCI/ADR-RES = test system: NCI/ADR-RES
SF-295 = test system: SF-295
DU-145 = test system: DU-145
TK-10 = test system: TK-10
KM12 = test system: KM12
UACC-257 = test system: UACC-257
HCC 2998 = test system: HCC 2998
HOP-62 = test system: HOP-62
SF-539 = test system: SF-539
SW-620 = test system: SW-620
SK-OV-3 = test system: SK-OV-3
U-251 = test system: U-251
HT-29 = test system: HT-29
SNB-75 = test system: SNB-75
SR = test system: SR
HCT-116 = test system: HCT-116
MDA-MB-435 = test system: MDA-MB-435
NCI-H460 = test system: NCI-H460
MDA-N = test system: MDA-N
EKVX = test system: EKVX
T47D = test system: T47D
IGROV-1 = test system: IGROV-1
UACC-62 = test system: UACC-62
HCT-15 = test system: HCT-15
SF-268 = test system: SF-268
OVCAR-8 = test system: OVCAR-8
PC-3 = test system: PC-3
OVCAR-5 = test system: OVCAR-5
M14 = test system: M14
K562 = test system: K562
HOP-92 = test system: HOP-92
NCI-H226 = test system: NCI-H226
UO-31 = test system: UO-31
SK-MEL-2 = test system: SK-MEL-2
A549 = test system: A549
HL-60 = test system: HL-60
ACHN = test system: ACHN
RXF 393 = test system: RXF 393
SNB-19 = test system: SNB-19
OVCAR-3 = test system: OVCAR-3
NCI-H23 = test system: NCI-H23
RPMI-8226 = test system: RPMI-8226

For `CC(=O)O[C@H]1C#C/C=C\C#CC[C@@H]2C(=O)N(C(=O)OC(C)(C)C)[C@@H]12`, the GI50 (COLO 205) was 22.2 µM (inactive), the GI50 (786-0) was 9.93 µM (inactive) and the GI50 (CCRF-CEM) was 1.52 µM (inactive). The GI50 (MDA-MB-231) was 55.3 µM (inactive), the GI50 (SK-MEL-28) was 71.4 µM (inactive) and the GI50 (SK-MEL-5) was 18.2 µM (inactive). The GI50 (SN12C) was 18.8 µM (inactive), the GI50 (Hs-578T) was 39.6 µM (inactive) and the GI50 (A498) was 33.4 µM (inactive). For the same compound, the GI50 (MOLT-4) was 0.199 µM (active), the GI50 (LOX IMVI) was 13.1 µM (inactive) and the GI50 (MCF7) was 2.34 µM (inactive). The GI50 (CAKI-1) was 6.46 µM (inactive), the GI50 (BT-549) was 33.5 µM (inactive) and the GI50 (OVCAR-4) was > 100 µM (inactive). For the same compound, the GI50 (Malme-3M) was 7.87 µM (inactive), the GI50 (NCI-H522) was 12.8 µM (inactive) and the GI50 (NCI/ADR-RES) was 15.7 µM (inactive). The GI50 (SF-295) was 21.3 µM (inactive), the GI50 (DU-145) was 19.9 µM (inactive) and the GI50 (TK-10) was > 55.1 µM (inactive). The GI50 (KM12) was 53.7 µM (inactive), the GI50 (UACC-257) was 28.4 µM (inactive) and the GI50 (HCC 2998) was 19.5 µM (inactive). The GI50 (HOP-62) was 7.11 µM (inactive), the GI50 (SF-539) was 1.67 µM (inactive) and the GI50 (SW-620) was 48.8 µM (inactive). The GI50 (SK-OV-3) was 62.4 µM (inactive), the GI50 (U-251) was 17.7 µM (inactive) and the GI50 (HT-29) was 36.1 µM (inactive). For the same compound, the GI50 (SNB-75) was 21.5 µM (inactive), the GI50 (SR) was 24 µM (inactive) and the GI50 (HCT-116) was 17.4 µM (inactive). For the same compound, the GI50 (MDA-MB-435) was 71.6 µM (inactive), the GI50 (NCI-H460) was 0.25 µM (active) and the GI50 (MDA-N) was 39.4 µM (inactive). The GI50 (EKVX) was 85.7 µM (inactive), the GI50 (T47D) was 32.7 µM (inactive) and the GI50 (IGROV-1) was 3.45 µM (inactive). The GI50 (UACC-62) was 14.8 µM (inactive), the GI50 (HCT-15) was 13.6 µM and the GI50 (SF-268) was 16.8 µM (inactive). For the same compound, the GI50 (OVCAR-8) was 14.5 µM (inactive), the GI50 (PC-3) was > 67.3 µM (inactive) and the GI50 (OVCAR-5) was > 100 µM (inactive). The GI50 (M14) was 28.3 µM (inactive), the GI50 (K562) was 25.7 µM (inactive) and the GI50 (HOP-92) was 26.9 µM (inactive). For the same compound, the GI50 (NCI-H226) was 24.3 µM (inactive), the GI50 (UO-31) was 2.91 µM (inactive) and the GI50 (SK-MEL-2) was 41.2 µM (inactive). The GI50 (A549) was 16.6 µM (inactive), the GI50 (HL-60) was 2.45 µM (inactive) and the GI50 (ACHN) was 4 µM (inactive). The GI50 (RXF 393) was 15.4 µM (inactive), the GI50 (SNB-19) was 18.7 µM (inactive) and the GI50 (OVCAR-3) was 41.1 µM (inactive). For the same compound, the GI50 (NCI-H23) was 12.6 µM (inactive) and the GI50 (RPMI-8226) was 16.2 µM (inactive).
